Experimental data taken from patent US20240252514A1, “NEUROACTIVE STEROID FOR THE TREATMENT OF MILD COGNITIVE IMPAIRMENT ASSOCIATED WITH PARKINSON'S DISEASE” (SAGE THERAPEUTICS, INC., priority 2021, published 2024).
“Also recorded” adds a separate entry of the source.

Columns and labels:
Format in all cases: in vivo, human
[1] = test system: patients suffering from Mild Cognitive Impairment due to Parkinson's Disease (PD-MCI); experiment: Tests of Learning and Memory (PAL, PRM, Verbal Recognition Memory, Spatial Span), open label study
Experimental: (§1) The safety and tolerability of Compound 1 and its effects on cognitive, neuropsychiatric, and motor symptoms in patients suffering from Mild Cognitive Impairment due to Parkinson's Disease (PD-MCI) was evaluated in an open label study. Eligible participants with a confirmed diagnosis of idiopathic PD by 2015 Movement Disorder Society (MDS) criteria (Berardelli et al., EFNS/MDS-ES/ENS recommendations for the diagnosis of Parkinson's disease. Eur J Neurol. 2013; 20:16-34) at Screening and who met MDS Task Force Criteria for MCI in PD (excluding requirement for UK PD Brain Bank diagnostic criteria) received 3.0 mg of Compound 1 (oral dose) daily for 14 days. Participants were instructed to take the daily dose of Compound 1 in the morning within 1 hour of initiating a meal containing approximately 30 g of fat. The study protocol was as follows and is depicted in FIG. 1.
(§2) Beginning on Day 1 and continuing through Day 14, participants self-administered 3.0 mg Compound 1 (as six 0.5-mg oral tablets), once per day in the morning within 1 hour after initiating a meal containing approximately 30 g of fat, in accordance with the guidelines provided in a nutritional information brochure. Participants continued to complete daily assessments of cognitive performance and sleep via mobile device either remotely (at home), or in the clinic at scheduled visits and tracked Compound 1 dosing and predose food intake in a participant diary.
(§3) Eight patients (male and female) aged 50 to 75 years old with mild cognitive impairment due to Parkinson's disease received 3 mg as oral tablets of Compound 1 daily for 2-weeks.
The tests of Learning and Memory included Paired Associates Learning (PAL), which assesses how well the subject remembers the location of hidden objects; Pattern Recognition Memory (PRM), which assesses how well the subject remembers a pattern; and Verbal Recognition Memory […], which assesses how well the subject stores and retrieves verbal information.

[2] = test system: patients suffering from Mild Cognitive Impairment due to Parkinson's Disease (PD-MCI); experiment: Tests of Attention and Psychomotor Performance (RTI, PVT), open label study
Experimental: as §1, §2, §3
The tests of Attention and Psychomotor Performance included Reaction Time (RTI), which assesses how fast the subject can respond to a stimulus (weekly measure); Psychomotor Vigilance Task (PVT), which assesses how fast can the subject respond to a stimulus (daily measure).

[3] = test system: patients suffering from Mild Cognitive Impairment due to Parkinson's Disease (PD-MCI); experiment: Tests of Social Cognition (ERT, EBT), open label study; details: 3 mg oral daily for 14 days, vs baseline, Clinic/Weekly
Experimental: as §1
Beginning on Day 1 and continuing through Day 14, participants self-administered 3.0 mg Compound 1 (as six 0.5-mg oral tablets), once per day in the morning within 1 hour after initiating a meal containing approximately 30 g of fat, in accordance with the guidelines provided in a nutritional information brochure. […]

[4] = test system: patients suffering from Mild Cognitive Impairment due to Parkinson's Disease (PD-MCI); experiment: Safety and tolerability (adverse events), open label study; details: 3 mg oral daily for 14 days, follow-up to Day 28
Experimental: as §1
At scheduled visits during the Treatment Period, participants completed the mobile device tasks under staff supervision. At scheduled clinic visits during the Treatment Period, safety, efficacy, and PK procedures were performed. In addition to weekly clinic visits, study staff contacted participants by telephone on Day 4 to document any TEAEs and/or changes in concomitant medications.
Participants were contacted by telephone on Day 21 to document any AEs and/or changes in concomitant medications. Participants returned to the clinic on Day 28 (±2 days) for a follow-up visit.
The Primary objective of the study was to assess (1) the percentage of Participants With at Least One Treatment-Emergent Adverse Event (TEAE) (Time Frame: Up to Day 28).

[5] = test system: patients suffering from Mild Cognitive Impairment due to Parkinson's Disease (PD-MCI); experiment: Tests of Executive Functioning (MTT, OTS, SWM, DSST, 2-Back), open label study
Experimental: as §1, §2, §3
The tests of Executive Functioning included (1) Multitasking Test (MTT), which assesses how well the subject manages conflicting information; (2) One Touch Stockings of Cambridge (OTS), which assesses how well the subject plans, holds onto, and manipulates information to solve a puzzle; (3) Spatial Working Memory (SWM), which assesses how well the subject develops and uses a strategy to find hidden information; (4) Digit Symbol Substitution Task (DSST), which assesses how efficiently can the subject complete a demanding task (daily measure); and (5) Two-Back Test (NBX), which asks is the symbol the same as that shown two symbols ago.

[6] = 3 mg oral daily for 14 days, vs baseline, Clinic/Weekly
[7] = PD-MCI patients, 3 mg oral daily for 14 days, vs baseline, Clinic/Weekly

## C[C@H](CC[C@](C)(O)C(F)(F)F)[C@H]1CC[C@H]2[C@@H]3CC=C4C[C@@](C)(O)CC[C@]4(C)[C@H]3CC[C@]12C [Compound 1]
[1]; [6]
  Trend, Learning and Memory: Paired Associates: Improvement
  Trend, Learning and Memory: Pattern recognition: Improvement
  Trend, Learning and Memory: Spatial Span: Neutral
  Trend, Learning and Memory: Verbal Memory: Improvement
[1]; 3 mg oral daily, 14 days, vs baseline (FIGS. 4 and 5)
  Performance in the domains of learning and memory (overall): improved performance from baseline
[2]; [6]
  Trend, Attention & Psychomotor Speed: Reaction Time: Neutral
[2]; 3 mg oral daily for 14 days, vs baseline, Mobile/Daily
  Trend, Attention & Psychomotor Speed: Psychomotor Vigilance: Neutral
[2]; 3 mg oral daily, 14 days (FIG. 6)
  Performance in tests of attention and psychomotor speed (overall): neutral results; also recorded: no appreciable change
[3]
  Trend, Social Cognition: Emotional Bias: Improvement
  Trend, Social Cognition: Emotional Recognition: Neutral
[4]
  Serious adverse events: no serious adverse events
  Tolerability: generally well tolerated
  Treatment emergent adverse events related to the compound: no treatment emergent adverse events were determined to be related to Compound 1
[5]; [7]
  Trend, Executive Functioning: 2-Back: Improvement
  Trend, Executive Functioning: Multitasking: Improvement
  Trend, Executive Functioning: One Touch Stockings: Improvement
  Trend, Executive Functioning: Spatial working Memory: Improvement
[5]; PD-MCI patients, 3 mg oral daily for 14 days, vs baseline, Mobile/Daily
  Trend, Executive Functioning: DSST: Improvement
[5]; PD-MCI patients, 3 mg oral daily, during 14 days of treatment, vs baseline (FIGS. 2-3)
  Performance in the cognitive domain of executive function (five tests, overall): performance improvements from baseline; also recorded: improved performance
[5]; PD-MCI subjects, 3 mg oral daily, Treatment Day 14 (FIG. 3)
  DSST improvement over baseline: ~27%
